This note sets out measurements from ChEMBL document CHEMBL2321873, “1-(4-Phenylpiperazin-1-yl)-2-(1H-pyrazol-1-yl)ethanones as novel CCR1 antagonists” (Bioorg Med Chem Lett, 2013).

Each structure is given as a SMILES string. Calls of active or inactive are those of the source. No cut-off for these calls is given here.

Series [1] concerns the target T1, C-C chemokine receptor type 7 (Homo sapiens) (UniProt P32248).
T1 sequence (whole entry): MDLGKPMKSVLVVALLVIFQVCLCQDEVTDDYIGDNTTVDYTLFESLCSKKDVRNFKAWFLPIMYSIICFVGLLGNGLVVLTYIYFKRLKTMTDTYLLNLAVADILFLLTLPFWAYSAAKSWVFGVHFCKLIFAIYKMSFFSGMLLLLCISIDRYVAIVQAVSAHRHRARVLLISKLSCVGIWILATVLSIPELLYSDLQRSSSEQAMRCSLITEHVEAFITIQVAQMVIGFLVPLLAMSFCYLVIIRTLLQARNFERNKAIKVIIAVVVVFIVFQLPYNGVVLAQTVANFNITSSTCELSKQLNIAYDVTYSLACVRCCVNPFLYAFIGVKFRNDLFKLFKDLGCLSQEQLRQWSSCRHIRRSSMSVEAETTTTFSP
Put plainly: Antagonist activity at CCR7 (unknown origin) assessed as inhibition of calcium flux at 10 uM. It is filed as functional. In general terms: A change in cytosolic calcium serves as a functional read-out for many receptors and channels.

In a further series the test system is Rattus norvegicus. Put plainly: Toxicity in Sprague-Dawley rat assessed as effect on complete blood cell count at 70 to 360 mg/kg, po after 7 days. The series is classed as organism-based. On the set-up: dose 70-360 mg/kg, route oral. As to conditions: in vivo, 168 h.
The target in series [2] is T2, C-X-C chemokine receptor type 1 (Homo sapiens) (UniProt P25024).
T2 sequence (whole entry): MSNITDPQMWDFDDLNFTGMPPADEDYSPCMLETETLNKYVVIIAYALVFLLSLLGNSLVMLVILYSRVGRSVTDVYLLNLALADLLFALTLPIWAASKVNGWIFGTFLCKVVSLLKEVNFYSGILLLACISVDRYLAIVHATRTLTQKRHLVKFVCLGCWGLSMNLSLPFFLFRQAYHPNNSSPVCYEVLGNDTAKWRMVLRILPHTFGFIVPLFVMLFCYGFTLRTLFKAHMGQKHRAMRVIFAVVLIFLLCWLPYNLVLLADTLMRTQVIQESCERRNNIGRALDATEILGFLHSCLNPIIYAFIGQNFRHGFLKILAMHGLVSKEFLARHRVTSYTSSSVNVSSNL
The experiment in a line: Antagonist activity at CXCR1 (unknown origin) assessed as inhibition of chemotaxis at 10 uM.

The target in another series is Cytochrome P450 2C9 (Homo sapiens, UniProt P11712). Put plainly: Competitive inhibition of CYP2C9 (unknown origin). The series is classed as ADME.
Sequence of Cytochrome P450 2C9 (P11712 whole entry): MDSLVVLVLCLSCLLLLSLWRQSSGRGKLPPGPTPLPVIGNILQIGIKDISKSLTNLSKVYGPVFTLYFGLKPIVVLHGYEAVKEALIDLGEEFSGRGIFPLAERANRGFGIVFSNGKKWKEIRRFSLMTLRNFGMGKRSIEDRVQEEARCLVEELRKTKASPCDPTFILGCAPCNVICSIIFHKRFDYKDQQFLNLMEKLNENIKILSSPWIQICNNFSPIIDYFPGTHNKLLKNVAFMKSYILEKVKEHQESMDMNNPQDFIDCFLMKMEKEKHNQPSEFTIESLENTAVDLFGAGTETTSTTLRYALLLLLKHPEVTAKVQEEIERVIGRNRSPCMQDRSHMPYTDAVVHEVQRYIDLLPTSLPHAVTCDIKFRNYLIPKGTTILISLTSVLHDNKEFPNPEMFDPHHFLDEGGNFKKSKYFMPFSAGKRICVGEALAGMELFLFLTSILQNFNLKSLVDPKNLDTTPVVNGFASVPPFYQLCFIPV
Series [3] concerns the target T1, C-C chemokine receptor type 7 (Homo sapiens). The experiment in a line: Antagonist activity at CCR7 (unknown origin) assessed as inhibition of chemotaxis at 10 uM.
Series [4] deals with T3, C-C chemokine receptor type 9 (Homo sapiens) (UniProt P51686).
T3 sequence (whole entry): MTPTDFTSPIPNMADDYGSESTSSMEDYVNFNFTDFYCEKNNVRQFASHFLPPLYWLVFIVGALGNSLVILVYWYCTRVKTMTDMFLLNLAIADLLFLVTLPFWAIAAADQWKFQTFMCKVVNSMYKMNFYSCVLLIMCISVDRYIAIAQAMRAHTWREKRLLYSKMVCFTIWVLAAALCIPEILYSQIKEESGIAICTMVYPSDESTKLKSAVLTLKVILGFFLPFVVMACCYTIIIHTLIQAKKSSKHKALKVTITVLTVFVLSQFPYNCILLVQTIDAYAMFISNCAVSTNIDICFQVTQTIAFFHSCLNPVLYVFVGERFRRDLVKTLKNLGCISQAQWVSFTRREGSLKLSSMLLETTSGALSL
The experiment in a line: Antagonist activity at CCR9 (unknown origin) assessed as inhibition of calcium flux at 10 uM. The series is classed as functional.

Series [5] has as its target T4, C-C chemokine receptor type 3 (Homo sapiens) (UniProt P51677).
T4 sequence (whole entry): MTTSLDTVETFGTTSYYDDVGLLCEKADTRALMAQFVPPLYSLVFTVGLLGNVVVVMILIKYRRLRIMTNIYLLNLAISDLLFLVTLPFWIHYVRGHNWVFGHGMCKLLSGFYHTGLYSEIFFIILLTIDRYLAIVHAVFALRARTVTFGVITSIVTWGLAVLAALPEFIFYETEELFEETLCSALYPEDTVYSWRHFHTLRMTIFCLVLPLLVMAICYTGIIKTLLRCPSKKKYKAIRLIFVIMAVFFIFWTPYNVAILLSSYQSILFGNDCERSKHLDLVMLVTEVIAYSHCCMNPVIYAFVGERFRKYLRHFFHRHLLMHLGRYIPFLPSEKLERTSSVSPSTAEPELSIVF
Put plainly: Binding affinity to CCR3 (unknown origin) at 10 uM by radioligand displacement assay. In general terms: Displacement assays read how much labelled ligand stays bound in the presence of the test substance.

Series [6] has as its target T4, C-C chemokine receptor type 3 (Homo sapiens). Put plainly: Antagonist activity at CCR3 (unknown origin) assessed as inhibition of chemotaxis at 10 uM.
Series [7] can be described thus: Plasma clearance in Beagle dog at 1 mg/kg, iv. It is filed as ADME, organism-based, Canis lupus familiaris. On the set-up: dose 1 mg/kg, route intravenous.
In series [8] the target is C-C chemokine receptor type 2 (Homo sapiens) (UniProt P41597). Put plainly: Binding affinity to CCR2 (unknown origin) at 10 uM by radioligand displacement assay.
Sequence of C-C chemokine receptor type 2 (Homo sapiens) (P41597 whole entry, looked up): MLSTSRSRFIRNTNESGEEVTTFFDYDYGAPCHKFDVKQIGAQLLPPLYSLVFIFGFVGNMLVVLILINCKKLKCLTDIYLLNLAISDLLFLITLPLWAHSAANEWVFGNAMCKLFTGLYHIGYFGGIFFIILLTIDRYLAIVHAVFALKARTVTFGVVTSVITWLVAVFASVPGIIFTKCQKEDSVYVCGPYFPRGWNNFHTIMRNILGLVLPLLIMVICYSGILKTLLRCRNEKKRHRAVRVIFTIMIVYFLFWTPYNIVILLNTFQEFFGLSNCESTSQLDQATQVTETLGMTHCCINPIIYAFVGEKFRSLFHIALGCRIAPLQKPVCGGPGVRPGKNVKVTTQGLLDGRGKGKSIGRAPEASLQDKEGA
Series [9] concerns the target C-X-C chemokine receptor type 4 (Homo sapiens) (UniProt P61073). Put plainly: Binding affinity to CXCR4 (unknown origin) at 10 uM by radioligand displacement assay.
For another series, the target named is Cytochrome P450 2D6 (Homo sapiens, UniProt P10635). Put plainly: Competitive inhibition of CYP2D6 (unknown origin). It is filed as ADME.
Sequence of Cytochrome P450 2D6 (P10635 whole entry): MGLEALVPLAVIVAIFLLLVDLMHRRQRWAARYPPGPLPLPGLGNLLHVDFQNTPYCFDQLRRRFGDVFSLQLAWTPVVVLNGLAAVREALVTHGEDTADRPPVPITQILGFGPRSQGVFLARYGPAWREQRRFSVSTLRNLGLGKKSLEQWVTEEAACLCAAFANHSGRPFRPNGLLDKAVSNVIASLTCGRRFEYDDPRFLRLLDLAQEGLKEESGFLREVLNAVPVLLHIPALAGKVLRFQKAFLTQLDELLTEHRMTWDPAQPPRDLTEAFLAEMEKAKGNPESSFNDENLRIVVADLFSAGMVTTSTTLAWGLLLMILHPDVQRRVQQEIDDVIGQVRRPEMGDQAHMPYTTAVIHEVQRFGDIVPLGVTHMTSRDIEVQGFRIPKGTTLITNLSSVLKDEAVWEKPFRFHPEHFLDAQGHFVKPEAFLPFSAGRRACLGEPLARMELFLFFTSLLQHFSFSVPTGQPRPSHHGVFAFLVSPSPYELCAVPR
The target in series [10] is C-X-C chemokine receptor type 4 (Homo sapiens) (UniProt P61073). Put plainly: Antagonist activity at CXCR4 (unknown origin) assessed as inhibition of calcium flux at 10 uM. The series is classed as functional.
Sequence of C-X-C chemokine receptor type 4 (Homo sapiens) (P61073 whole entry): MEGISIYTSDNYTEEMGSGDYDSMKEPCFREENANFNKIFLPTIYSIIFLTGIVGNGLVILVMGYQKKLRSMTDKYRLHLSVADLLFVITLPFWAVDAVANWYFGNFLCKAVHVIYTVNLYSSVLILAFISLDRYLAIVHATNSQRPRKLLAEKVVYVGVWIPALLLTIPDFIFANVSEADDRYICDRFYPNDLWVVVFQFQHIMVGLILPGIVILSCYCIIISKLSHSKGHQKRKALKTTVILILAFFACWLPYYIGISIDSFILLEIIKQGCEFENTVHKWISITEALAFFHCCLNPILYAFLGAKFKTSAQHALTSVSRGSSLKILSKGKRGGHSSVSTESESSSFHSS
The target in series [11] is T3, C-C chemokine receptor type 9 (Homo sapiens). The experiment in a line: Binding affinity to CCR9 (unknown origin) at 10 uM by radioligand displacement assay.
The target in series [12] is T5, C-X-C chemokine receptor type 2 (Homo sapiens) (UniProt P25025).
T5 sequence (whole entry): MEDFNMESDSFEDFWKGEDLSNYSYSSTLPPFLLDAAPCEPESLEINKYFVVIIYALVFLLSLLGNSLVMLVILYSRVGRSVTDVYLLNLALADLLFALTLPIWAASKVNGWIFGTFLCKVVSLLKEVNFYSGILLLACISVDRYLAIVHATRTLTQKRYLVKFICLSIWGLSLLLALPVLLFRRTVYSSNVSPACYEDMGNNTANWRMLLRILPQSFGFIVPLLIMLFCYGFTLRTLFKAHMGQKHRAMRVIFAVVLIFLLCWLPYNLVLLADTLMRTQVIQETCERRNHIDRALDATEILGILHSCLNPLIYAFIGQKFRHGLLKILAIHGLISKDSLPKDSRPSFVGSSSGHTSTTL
Put plainly: Antagonist activity at CXCR2 (unknown origin) assessed as inhibition of chemotaxis at 10 uM.

Series [13] deals with T6, Atypical chemokine receptor 1 (Homo sapiens) (UniProt Q16570).
T6 sequence (whole entry): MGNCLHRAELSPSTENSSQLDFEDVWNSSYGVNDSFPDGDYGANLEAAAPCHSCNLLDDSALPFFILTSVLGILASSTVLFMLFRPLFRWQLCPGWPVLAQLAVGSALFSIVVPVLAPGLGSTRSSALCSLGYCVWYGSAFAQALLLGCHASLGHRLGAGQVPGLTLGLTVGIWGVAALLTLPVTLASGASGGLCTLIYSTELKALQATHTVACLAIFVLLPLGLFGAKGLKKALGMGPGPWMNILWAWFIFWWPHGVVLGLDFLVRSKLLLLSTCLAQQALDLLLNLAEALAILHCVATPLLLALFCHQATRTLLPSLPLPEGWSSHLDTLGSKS
Put plainly: Antagonist activity at Duffy (unknown origin) assessed as inhibition of calcium flux at 10 uM. The series is classed as functional.

Broadly, the IC50 is the concentration needed to halve the response being measured. Read a low IC50 as greater potency. A word on the clearance: it is the volume of plasma or blood freed of the substance per unit of time.

On to `COc1cc(N2CCN(C(=O)Cn3nc(C(F)(F)F)c(Cl)c3C)CC2)ccc1Cl`, for which the inhibition result in series [1], in series [2], in series [3], in series [4], in [6] and in series [10] was “inactive” each time. For the same molecule, the inhibition entry in series [12] and in [13] was “inactive” in each case. Moreover, the Activity result in the series on Rattus norvegicus was “Non-toxic”. In addition, the half-maximal inhibitory concentration (IC50) on Cytochrome P450 2C9 and at Cytochrome P450 2D6 was above 10 µM throughout. In addition, the result in series [5], in series [8], in [9] and in series [11] was inactive. The clearance in series [7] worked out at 0.576 L/h/kg.
